Results taken from paper PMC9838834, “Improvement of Antialveolar echinococcosis efficacy of novel Albendazole-Bile acids Derivatives with Enhanced Oral Bioavailability” (PLOS Neglected Tropical Diseases, 2023).

Columns and labels:
[1] = Stability in rat plasma (UHPLC-MS method validation, S4 Table); type: in vitro ADME
Method: A Dionex Ultimate 3000 RSLC system (Thermofisher) combined with an Accucore aQ C18 column (150 mm×2.1 mm, 2.6 μm, Thermo fisher) was used in the sample separation process. The separation speed was set at […] for all gradients. 1 μL of injection volume and a constant temperature of (25 ± 1°C were set for the column. The eluents were A, water with 0.1% formic acid (v/v) and B, methanol; the gradient program was as follows: 0–6 min, 8–40% B; 6–8 min, 40–100% B; 8–10 min, 100% B; 10–11 min, 100–8% B; 11–13 min, 8% B.
Heated electro-spray ionization (HE-SI) was paired with a Q-Orbitrap MS in the MS analysis. The flow rate of auxiliary, sheath and sweep gas was set at 35, 10, and 1 (arbitrary unit), respectively. A full MS-ddMS^2 mode was used to perform the analysis. The damping gas in the C-trap and nitrogen was used to stabilize the spraying. Temperatures of 350°C and 320°C were set and kept for the auxiliary gas heater and capillary. Under negative mode, 3.0 kV was adopted for the spray voltage, 60 V was used for the S-lens RF level, 50 ms was used for the maximum injection time, and 3.0 ^e6 was set as the automatic gain control target. Full MS-ddMS^2 scan ranged from 150.0000 to 800.0000 m/z. Precise molecular weight […] was used for qualitative analysis, the corresponding peak area was used for quantitative analysis, and MS^2 fragments were used for further qualitative analysis.
Plasma samples were thawed at room temperature, and 100 μL was added to an equal volume of mass spectrometry grade methanol, vortexed for 1 min, and centrifuged again at 13000 rpm for 5 min. 100 μL of the supernatant were added to 100 μL of 200 ng/mL mebendazole IS solution, vortexed for 1 min, and centrifuged again at 13000 rpm for 5 min. The resulting sample was injected by UHPLC-HR-ESI-MS with an injection volume of 1 μL. The pharmacokinetic study of SD rats was performed according to the standards recommended by the "Guidelines for the Care and Use of Laboratory Animals" (Animal Laboratory Resources Institute, 1995) and was approved by the Institutional Animal Care and Use Committee of Qinghai University.
Supplementary file pntd.0011031.s004.xlsx: S4 Table The stability for the determination of total alkaloid in rat plasma. (XLSX) Click here for additional data file.

[2] = background statement; cited from earlier work
alveolar echinococcosis = system: alveolar echinococcosis; set-up: method as in PMID 18938096; conditions: AE patients; cited from earlier work
[3] = Determination of equilibrium solubility (HPLC); type: physicochemical; conditions: 48 h, pH 7.4
Method: An excess amount of ABZ-BA and ABZ were equilibrated in sodium phosphate buffer, pH 7.4, at 37°C for 48 h. The supernatant was separated from excess solid in solution by ultracentrifugation at 40000 rpm. Subsequently, the supernatant was diluted, and the solution concentration was determined using high-performance liquid chromatography (HPLC) (Shimadzu LC- 20AT, Kyoto, Japan). The chromatographic separation was performed with Diamonsil C18 (4.6×150 mm, 5 μm, Waters, Massachusetts, USA). ABZ-BA and ABZ were detected by ultraviolet (UV) absorbance detection at a wavelength of 240 nm. The mobile phase was methanol /water (70/30 v/v) and the flow rate was 1 mL/min. The injection volume was 20 μL.

protoscolex (PSCs) = assay: Caspase 3 in supernatant of PSC culture medium; type: cell-based, E. multilocularis; conditions: 5 days after treatment
[4] = system: secondary hepatic alveolar echinococcosis (E. multilocularis); assay: In vivo therapeutic efficacy in an in-situ AE animal model (lesion volume); conditions: AE model rats
Method: Six-week-old […] weighing 200-250g were purchased from a market (Weitong Lihua Laboratory Animal Technology Co., Ltd, Beijing, China). The rats were injected with protoscolex (PSC) suspension (1000–2000) PSCs/mL×0.1 mL/each using the open-abdominal direct liver puncture method. The modeling quality was confirmed by Mindray’s Resona7 color Doppler ultrasound system. The lesion volume was calculated by the length (X) and width (Y) of its ultrasound transverse section and the width (Z) of its longitudinal section, X·Y·Z. Rats with relatively uniform lesion volumes were selected as model animals for further experiments (Fig 1). All animal-related experiments were approved by the Animal Care and Utilization Committee (IACUC) of Qinghai University. The animals were housed in a room with controlled temperature (25 ± 2°C) with light-cycled (12 h light/dark cycle). Food and water were provided ad libitum.
At the 16th week after establishing an experimental secondary AE in rats, we divided the model rats into three groups. The first is the control group, with six infected rats were received with CMC-Na of 0.9% saline. In the second group, rats were received with 0.2 mL of Albenda suspension. In the third group, rats were received with 0.2 mL of ABZ-BA suspension. The three groups were administered by gavage with the dosage of 25 mg/kg/d, which was calculated according to the equivalent dose convert ratio between humans and animals based on the surface body area of humans. After a 30-day, once-daily oral administration, the liver tissue lesions were obtained and weighed to evaluate the cyst inhibition rate after one month of administration.

Hep-G2 cell line = assay: Cytotoxicity in Hep-G2 cell line; type: cell-based, human; conditions: ABZ-BA with different carbon chain lengths (C1, C4 linker), data not shown
Source text: Since this part of data will be published in other manuscripts, it is not shown in this manuscript.

[5] = nominal 1.58 (ABZ-BA) / 1.57 (ABZ) ng/mL
[6] = nominal 25.25 (ABZ-BA) / 25.18 (ABZ) ng/mL
[7] = nominal 101 (ABZ-BA) / 100.78 (ABZ) ng/mL
[8] = after 1 month of oral administration

With `CCCSc1ccc2nc(NC(=O)OC)[nH]c2c1` [ABZ, Albendazole] the “Measured (mean ± SD), 4℃ for 24 h” value [1, 5] was 1.53 ± 0.08 ng/mL, the “Measured (mean ± SD), Room temperature for 24 h” value [1, 5] was 1.56 ± 0.13 ng/mL and the “Measured (mean ± SD), Three freeze” value [1, 5] was 1.59 ± 0.15 ng/mL. The “Measured (mean ± SD), at -80℃ for 15 days” value [1, 5] was 1.56 ± 0.07 ng/mL, the “Measured (mean ± SD), 4℃ for 24 h” value [1, 6] was 25.65 ± 0.53 ng/mL and the “Measured (mean ± SD), Room temperature for 24 h” value [1, 6] was 24.87 ± 0.34 ng/mL. The “Measured (mean ± SD), Three freeze” value [1, 6] was 25.56 ± 0.56 ng/mL, the “Measured (mean ± SD), at -80℃ for 15 days” value [1, 6] was 25.34 ± 1.18 ng/mL and the “Measured (mean ± SD), 4℃ for 24 h” value [1, 7] was 104.63 ± 2.81 ng/mL. For the same compound, the “Measured (mean ± SD), Room temperature for 24 h” value [1, 7] was 98.90 ± 3.53 ng/mL, the “Measured (mean ± SD), Three freeze” value [1, 7] was 106.20 ± 1.36 ng/mL and the “Measured (mean ± SD), at -80℃ for 15 days” value [1, 7] was 108.56 ± 1.18 ng/mL. The oral bioavailability [2] was < 5% and the “clinical improvement after administration” value (alveolar echinococcosis) was “two-thirds of AE patients show moderate improvement”.
For `CCCSc1ccc2[nH]c(NC(=O)NCCCCOC(=O)CCC(C)C3CCC4C5C(O)CC6CC(O)CCC6(C)C5CC(O)C34C)nc2c1` (stereo not shown) [ABZ-BA], the “equilibrium solubility of ABZ-BA relative to ABZ in vitro” value [3] was 4 fold, the “solubility of ABZ-BA relative to ABZ” value [3] was “about 12 times” and the “content of caspase 3 in supernatant of PSC culture medium vs positive control group” value (protoscolex (PSCs)) was “significantly higher”. The “apoptotic effect on PSCs, dependence on concentration” value (protoscolex (PSCs); 13.45-53.8 μg/mL) was “concentration-dependent”, the lesion volume ([4]; 25 mg/kg/d by gavage, after 4 weeks of administration, n = 6, ultrasound X·Y·Z) was 0.35±0.18 cm^3 and the “effect of ABZ-BA group relative to Albenda” value [4, 8] was 2.7 fold. For the same compound, the therapeutic effect [4, 8] was “significant therapeutic effect” and the “cytotoxicity compared with ABZ” value (Hep-G2 cell line) was “the same cytotoxicity as ABZ”.
